The term EC50 denotes the concentration needed to bring the measured effect to its halfway point. A low value points to an effect from little substance.

The structures appear in SMILES notation.

This is an account of results in patent US12570642B2, “GLP-IR modulating compounds” (Gilead Sciences, Inc., priority 2021, dated 2026).

This assay has as its target GLP-1R (Homo sapiens, UniProt P43220). Nature of the assay: GLP-1R Activation - cAMP Assay. It is filed as cell-based. Conditions: cAMP increase in CHO cells stably expressing GLP-1R; each compound run on one of the two cAMP assays (Assay 1 or Assay 2, not specified). The essentials: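 CHO cells stably expressing GLP-1R, plated at 1,000 cells/well overnight, then equilibrated 1 h in HBSS with 20 mM Hepes and 0.1% BSA. Agonist added as 10-point dose response for 30 min at 37 °C. cAMP measured by HTRF (Cisbio Gs Dynamic kit); EC50 from sigmoidal fit.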
(In general: Changes in cAMP serve as a functional read-out for many G protein-coupled receptors.)

Chain of GLP-1R (P43220 24-463): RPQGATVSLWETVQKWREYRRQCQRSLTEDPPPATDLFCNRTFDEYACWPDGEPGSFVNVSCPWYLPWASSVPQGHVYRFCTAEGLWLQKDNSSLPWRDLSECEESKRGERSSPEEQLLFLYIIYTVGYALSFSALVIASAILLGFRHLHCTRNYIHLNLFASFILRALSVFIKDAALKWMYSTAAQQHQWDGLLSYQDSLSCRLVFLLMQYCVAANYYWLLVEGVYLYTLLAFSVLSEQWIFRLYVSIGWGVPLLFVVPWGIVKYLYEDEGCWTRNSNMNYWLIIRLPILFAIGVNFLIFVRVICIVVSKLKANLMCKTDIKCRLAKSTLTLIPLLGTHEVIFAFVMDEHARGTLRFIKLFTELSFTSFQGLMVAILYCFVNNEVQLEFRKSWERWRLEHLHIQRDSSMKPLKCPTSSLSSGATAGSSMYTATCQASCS

Consider `CC1(C)COC[C@H]1n1c(Cc2c(F)cc(-c3ccnc(OCc4ccc(Cl)cc4)n3)c(F)c2F)nc2c(F)cc(C(=O)O)cc21` [Example 229, (S)-2-(4-(2-((4-chlorobenzyl)oxy)pyrimidin-4-yl)-2,3,6-trifluorobenzyl)-1-(4,4-dimethyltetrahydrofuran-3-yl)-4-fluoro-1H-benzo[d]imidazole-6-carboxylic acid], for which a half-maximal effect (EC50) was put at 0.135 nM. For `O=C(O)c1ccc2nc(Cc3cc(F)c(-c4cccc(OCc5ccc(Cl)cc5F)n4)cc3F)n(C3COC4CC3C4)c2c1` (stereo in doubt) [Example 572, (R)-1-(2-oxabicyclo[3.1.1]heptan-4-yl)-2-(4-(6-((4-chloro-2-fluorobenzyl)oxy)pyridin-2-yl)-2,5-difluorobenzyl)-1H-benzo[d]imidazole-6-carboxylic acid] the value was 0.322 nM; for `Cc1cc(Cc2nc3c(F)cc(C(=O)O)cc3n2[C@@H]2COCC2(C)C)c(Cl)cc1-c1cccc(OCc2ccc(C#N)cc2F)n1` [Example 139, (S)-2-(2-chloro-4-(6-((4-cyano-2-fluorobenzyl)oxy)pyridin-2-yl)-5-methylbenzyl)-1-(4,4-dimethyltetrahydrofuran-3-yl)-4-fluoro-1H-benzo[d]imidazole-6-carboxylic Acid], 0.023 nM; for `COc1nc(Cl)ccc1COc1cccc(-c2cc(F)c(Cc3nc4c(F)cc(C(=O)O)cc4n3C3COCC3(C)C)cc2F)n1` (stereo not drawn) [Example 170, 2-(4-(6-((6-chloro-2-methoxypyridin-3-yl)methoxy)pyridin-2-yl)-2,5-difluorobenzyl)-1-(4,4-dimethyltetrahydrofuran-3-yl)-4-fluoro-1H-benzo[d]imidazole-6-carboxylic Acid], 0.227 nM.

In turn, `CN(C)C(=O)[C@@H]1COC[C@@H]1n1c(Cc2cc(F)c(-c3cccc(OCc4ccc(C#N)cc4F)n3)cc2F)nc2ccc(C(=O)O)cc21` (racemic) [Example 76, 2-(4-(6-((4-cyano-2-fluorobenzyl)oxy)pyridin-2-yl)-2,5-difluorobenzyl)-1-((3R,4S)-4-(dimethylcarbamoyl)tetrahydrofuran-3-yl)-1H-benzo[d]imidazole-6-carboxylic Acid] had an EC50 of 100 nM. For `COCCn1c(Cc2c(F)cc(-c3cccc(OCc4ccc(C#N)cc4)n3)c(F)c2F)nc2c(F)cc(C(=O)O)cc21` [Example 378, 2-(4-(6-((4-cyanobenzyl)oxy)pyridin-2-yl)-2,3,6-trifluorobenzyl)-4-fluoro-1-(2-methoxyethyl)-1H-benzo[d]imidazole-6-carboxylic acid] the value was 0.321 nM. To `Cc1cn(-c2ccc(COc3cccc(-c4cc(F)c(Cc5nc6ccc(C(=O)O)cc6n5[C@@H]5COCC5(C)C)cc4F)n3)c(F)c2)nn1` [Example 164, (S)-2-(2,5-difluoro-4-(6-((2-fluoro-4-(4-methyl-1H-1,2,3-triazol-1-yl)benzyl)oxy)pyridin-2-yl)benzyl)-1-(4,4-dimethyltetrahydrofuran-3-yl)-1H-benzo[d]imidazole-6-carboxylic Acid] belongs 0.085 nM; to `CC1(C)COC[C@H]1n1c(Cc2c(F)cc(-c3cccc(OCc4ccc(C#N)cc4)n3)cc2F)nc2ccc(C(=O)O)cc21` [Example 362, (S)-2-(4-(6-((4-cyanobenzyl)oxy)pyridin-2-yl)-2,6-difluorobenzyl)-1-(4,4-dimethyltetrahydrofuran-3-yl)-1H-benzo[d]imidazole-6-carboxylic acid], 0.266 nM; to `COCCn1c(Cc2ccc(-c3cccc(OCc4ccc(C#N)cc4F)c3)nc2)nc2ccc(C(=O)O)cc21` [Example 46], 20.9 nM. To `CC1(C)COC[C@H]1n1c(Cc2cc(F)c(-c3cccc(OCc4ccc(Cl)cc4F)n3)cc2F)nc2cc(F)c(C(=O)O)cc21` [Example 417, (S)-2-(4-(6-((4-chloro-2-fluorobenzyl)oxy)pyridin-2-yl)-2,5-difluorobenzyl)-1-(4,4-dimethyltetrahydrofuran-3-yl)-5-fluoro-1H-benzo[d]imidazole-6-carboxylic acid] belongs 0.19 nM; to `COCCn1c(Cc2cc(F)c(-c3cccc(OCc4ncc(F)cc4F)n3)cc2F)nc2ccc(C(=O)O)cc21` [Example 31, 2-(4-(6-((3,5-difluoropyridin-2-yl)methoxy)pyridin-2-yl)-2,5-difluorobenzyl)-1-(2-methoxyethyl)-1H-benzo[d]imidazole-6-carboxylic Acid], 30.4 nM; to `CC1(C)COCC1n1c(Cc2cc(F)c(-c3ccc(F)c(OCc4ccc(Cl)cc4F)n3)cc2F)nc2c(F)cc(C(=O)O)cc21` (stereo not drawn) [Example 347, 2-(4-(6-((4-chloro-2-fluorobenzyl)oxy)-5-fluoropyridin-2-yl)-2,5-difluorobenzyl)-1-(4,4-dimethyltetrahydrofuran-3-yl)-4-fluoro-1H-benzo[d]imidazole-6-carboxylic acid], 0.132 nM. `COCCn1c(Cc2cc(F)c(-c3cccc(OCc4ccc(-c5cnn(C(F)F)c5)cc4F)n3)cc2F)nc2ccc(C(=O)O)cc21` [Example 100, 2-(4-(6-((4-(1-(difluoromethyl)-1H-pyrazol-4-yl)-2-fluorobenzyl)oxy)pyridin-2-yl)-2,5-difluorobenzyl)-1-(2-methoxyethyl)-1H-benzo[d]imidazole-6-carboxylic Acid] showed an EC50 of 0.45 nM. Compound `N#Cc1ccc(COc2cccc(-c3ccc(Cc4nc5ccc(C(=O)O)cc5n4[C@@H]4CCOC4)c(F)c3)n2)c(F)c1` [Example 209, (R)-2-(4-(6-((4-cyano-2-fluorobenzyl)oxy)pyridin-2-yl)-2-fluorobenzyl)-1-(tetrahydrofuran-3-yl)-1H-benzo[d]imidazole-6-carboxylic acid] gave an EC50 of 12.3 nM. To `C[C@H]1OCC[C@H]1n1c(Cc2cc(F)c(-c3cccc(OCc4ccc(C#N)cc4F)n3)cc2F)nc2ccc(C(=O)O)cc21` (racemic) [Example 73, 2-(4-(6-((4-cyano-2-fluorobenzyl)oxy)pyridin-2-yl)-2,5-difluorobenzyl)-1-((2R,3R)-2-methyltetrahydrofuran-3-yl)-1H-benzo[d]imidazole-6-carboxylic Acid] belongs 2.4 nM. `N#Cc1ccc(COc2cccc(-c3cc(F)c(Cc4nc5ccc(C(=O)O)cc5n4[C@H]4COC[C@H]4OCC(F)F)cc3F)n2)c(F)c1` [Example 541, 2-(4-(6-((4-cyano-2-fluorobenzyl)oxy)pyridin-2-yl)-2,5-difluorobenzyl)-1-((3S,4S)-4-(2,2-difluoroethoxy)tetrahydrofuran-3-yl)-1H-benzo[d]imidazole-6-carboxylic acid] had an EC50 of 0.434 nM. For `CC1(C)COC[C@H]1n1c(Cc2cc(F)c(-c3cccc(OCc4cnc(-n5ccnn5)cc4Cl)n3)cc2F)nc2ccc(C(=O)O)cc21` [Example 118, (S)-2-(4-(6-((4-chloro-6-(1H-1,2,3-triazol-1-yl)pyridin-3-yl)methoxy)pyridin-2-yl)-2,5-difluorobenzyl)-1-(4,4-dimethyltetrahydrofuran-3-yl)-1H-benzo[d]imidazole-6-carboxylic Acid] the value was 0.053 nM. For `O=C(O)c1cc(F)c2nc(Cc3cc(F)c(-c4cccc(OCc5ccc(Cl)cc5F)n4)cc3F)n(C3COCC34CC4)c2c1` (stereo not drawn) [Example 220, 2-(4-(6-((4-chloro-2-fluorobenzyl)oxy)pyridin-2-yl)-2,5-difluorobenzyl)-4-fluoro-1-(5-oxaspiro[2.4]heptan-7-yl)-1H-benzo[d]imidazole-6-carboxylic acid] the value was 0.216 nM; for `CC1(C)COC[C@H]1n1c(Cc2cc(F)c(-c3cccc(OCc4ncc(-n5ccnn5)cc4Cl)n3)cc2F)nc2ccc(C(=O)O)cc21` [Example 162, (S)-2-(4-(6-((3-chloro-5-(1H-1,2,3-triazol-1-yl)pyridin-2-yl)methoxy)pyridin-2-yl)-2,5-difluorobenzyl)-1-(4,4-dimethyltetrahydrofuran-3-yl)-1H-benzo[d]imidazole-6-carboxylic Acid], 0.187 nM; for `COCCn1c(Cc2c(F)cc(-c3cccc(OCc4cnc(-n5ccnn5)cc4Cl)n3)c(F)c2F)nc2c(F)cc(C(=O)O)cc21` [Example 226, 2-(4-(6-((4-chloro-6-(1H-1,2,3-triazol-1-yl)pyridin-3-yl)methoxy)pyridin-2-yl)-2,3,6-trifluorobenzyl)-4-fluoro-1-(2-methoxyethyl)-1H-benzo[d]imidazole-6-carboxylic acid], 0.022 nM.

`COCCn1c(Cc2cc(F)c(-c3cccc(OCc4ccc5c(c4)CN(C(=O)OC)C5)n3)cc2Cl)nc2c(F)cc(C(=O)O)cc21` [Example 258, 2-(2-chloro-5-fluoro-4-(6-((2-(methoxycarbonyl)isoindolin-5-yl)methoxy)pyridin-2-yl)benzyl)-4-fluoro-1-(2-methoxyethyl)-1H-benzo[d]imidazole-6-carboxylic acid] returned an EC50 of 0.24 nM. To `CC1(C)COC[C@H]1n1c(Cc2c(F)cc(-c3ccc(F)c(OCc4ccc(C#N)cc4F)n3)cc2F)nc2ccc(C(=O)O)cc21` [Example 322, (S)-2-(4-(6-((4-cyano-2-fluorobenzyl)oxy)-5-fluoropyridin-2-yl)-2,6-difluorobenzyl)-1-(4,4-dimethyltetrahydrofuran-3-yl)-1H-benzo[d]imidazole-6-carboxylic acid] belongs 0.346 nM; to `CC12CC(n3c(Cc4cc(F)c(-c5cccc(OCc6ccc(C#N)cc6F)n5)cc4F)nc4ccc(C(=O)O)cc43)(CO1)C2` (racemic) [Example 270, 2-(4-(6-((4-cyano-2-fluorobenzyl)oxy)pyridin-2-yl)-2,5-difluorobenzyl)-1-((1s,4s)-1-methyl-2-oxabicyclo[2.1.1]hexan-4-yl)-1H-benzo[d]imidazole-6-carboxylic acid], 6090 nM.

Compound `CC1(C)COC[C@H]1n1c(Cc2cc(F)c(-c3nccc(OCc4ccc(C#N)cc4F)n3)cc2F)nc2c(F)cc(C(=O)O)cc21` [Example 206, (S)-2-(4-(4-((4-cyano-2-fluorobenzyl)oxy)pyrimidin-2-yl)-2,5-difluorobenzyl)-1-(4,4-dimethyltetrahydrofuran-3-yl)-4-fluoro-1H-benzo[d]imidazole-6-carboxylic acid] displayed an EC50 of 0.191 nM.
